Assay results taken from patent publication US5654399A, “Tetrapeptide derivative having antitumor activity” (Teikoku Hormone Mfg. Co., Ltd., priority 1991, dated 1997).
Values after ≈ are worked out from the molar mass of the structure shown.

System: lymphocytic leukemia P388 cells
Assay: screening of cytostatic activity using lymphocytic leukemia P388 cells
Format: cell-based
From the text: The screening of cytostatic activity was made using lymphocytic leukemia P388 cells.

**Q.** Which ED50 does the source give for `CC[C@H](C)[C@@H]([C@@H](CC(=O)N1CCC[C@H]1[C@H](OC)[C@@H](C)C(=O)N[C@@H](Cc1ccccc1)c1nccs1)OC)N(C)C(=O)[C@@H](NC(=O)[C@H](C(C)C)N(C)C)C(C)C` [Dolastatin 10] here?
**A.** The ED50 was 0.7 ng/mL (≈ 0.892 nM).
